Experiment [1] concerns lipid metabolism. Briefly: Effects of diphosphonates on lipid metabolism in normal rats (serum lipids, α/β cholesterol). In kind it is in vivo, male Wistar rats. The settings on record: for change in vivo at 200 mg/kg/day: Rattus norvegicus, po; for decreases in serum triglycerides / increase in serum phospholipid / α-cholesterol/β-cholesterol ratio / lipoprotein cholesterol: rats; for increased HDL lipids, especially HDL cholesterol: normal rats. Here is the method:
Effects of diphosphonates of formula (I) on lipid metabolism in normal rats Groups of 4 to 5 normal male Wistar rats, weighing about 200 g were treated with diphosphonates (200 mg/kg/day) p.o. for 4 to 21 days. Water soluble compounds were given in solution in 24 mM bicarbonate buffer. Lipid soluble compounds were given in corn oil. The rats were weighed, sacrificed by decapitation (under light ether anesthesia) after overnight fasting. Blood was collected and serum used for analysis. The following blood parameters reflecting changes in lipid metabolism are reported: […]
free fatty acids measured according to W. G. Duncombe (Clin. Acta 9, 122, 1964) triglycerides enzymatic method (Boehringer Mannheim Kit 126 012) phospholipids: molybdate/vanadate reaction (Boehringer Mannheim Kit 124 974) β-lipoprotein cholesterol was measured after heparin, CaCl2 precipitation according to M. Burstein et al. (La Presse Medicale 43, 974, 1958) and to D. Watson (Clin. Chim. Acta 5, 637, 1960).
(§1) In above Table IV, results are given as % control values. Except for serum calcium, values which differ from control values by less than 15% are considered as non significant (NS).
Serum free fatty acids, triglycerides and phospholipids were measured in normal rats (N) and rats previously fed a cholesterol diet for 10 days (C.F.) Serum α/β cholesterol, total lipids and cholesterol of liver and aorta were determined in normal rats (N) and rats which had previously been fed on high cholesterol diet (C.F.)

Experiment [2] has as its system tissue cholesterol. Briefly: Effects in cholesterol fed rats (serum, liver and aorta lipids). The settings on record: for change in vivo at 200 mg/kg/day: Rattus norvegicus; for liver total lipids and/or liver cholesterol: cholesterol fed rats. The experiment is classed as in vivo. Here is the method:
Effects of diphosphonates of formula (I) in cholesterol fed rats
In order to increase tissue cholesterol, especially liver, rats were fed a high fat-high cholesterol diet for 10 days to 3 months, with the following diet composition: casein 20%, butter 37%, cellulose 9.1%, dextrose 18,9%, cholesterol 4.5%, sodium cholate 1.8%, minerals 7.3%, vitamins 1%, choline 0.4%.
The rats were then fed normal food and were treated for 10 days to 3 months with different compounds (200 mg/kg/day). Serum parameters described above were measured. Liver and aorta lipids were extracted according to J. Folch et al (J. Biochem. 226, 497, 1957). Total lipids were determined by the sulfophosphovanillic reaction (see N. Zolner and K. Kirsch, Z. Ges. exp. Med. 135, 545, 1962) and cholesterol by the Liebermann-Burchard reaction or appropriate enzymatic reaction.
as §1
Serum free fatty acids, triglycerides and phospholipids were measured in normal rats (N) and rats previously fed a cholesterol diet for 10 days (C.F.)
Serum α/β cholesterol, total lipids and cholesterol of liver and aorta were determined in normal rats (N) and rats which had previously been fed on high cholesterol diet (C.F.)

The test system of experiment [3] is serum calcium. Briefly: Effects of acid and salt form of diphosphonates in hypercalceamic rats. The experiment is classed as in vivo, male Wistar rats. The method, then:
Effects of acid and salt form of diphosphonates of formula (I) in hypercalceamic rats
To verify this activity the acid form of compound 4 and is monosodium salt counterpart (compound 10) were also tested by using a protol similar to the one described by Potokar (see above). Briefly, groups of 4 male Wistar rats received acid or salt form of compound 4 as 0.05% solution in drinking water corresponding to about 50 mg/kg/day. The rats were treated with the compounds for 15 days.
Serum calcium was measured in hypercalceamic rats.

[4] abbreviates: normal rats (N), 200 mg/kg/day p.o., read-out: Serum Free Fatty Acids (% control values).
Where [5] appears, read: normal rats (N), 200 mg/kg/day p.o., read-out: Serum Phospholipids (% control values).
[6] abbreviates: normal rats (N), 200 mg/kg/day p.o., read-out: Serum Triglycerides (% control values).
Setting [7] is: cholesterol fed rats (C.F), 200 mg/kg/day, read-out: Liver Chol. (% control values).
Setting [8] is: cholesterol fed rats (C.F), 200 mg/kg/day, read-out: Liver Total Lipids (% control values).
[9] abbreviates: cholesterol fed rats (C.F), 200 mg/kg/day.
Setting [10] is: normal rats (N), 200 mg/kg/day p.o., read-out: Serum Chol. α/β (% control values).
The mark [11] stands for this setting: normal rats (N), 200 mg/kg/day p.o., monosodium salt, 200 mg/kg/day.
[12] abbreviates: normal rats (N), 200 mg/kg/day p.o.

The source of these data is patent US4416877A, “Anti-atherosclerotic pharmaceutical compositions containing diphosphonate compounds” (priority 1979, dated 1983).

SMILES strings stand for the structures. Entries after “also recorded” stand apart in the source; their conditions may differ. Structures can show the parent of a compound that is named as a salt. Where two headings read alike, the source gives them in different places.

Take `COP(=O)(OC)C(O)(C(C)(C)Oc1ccc(Cl)cc1)P(=O)(OC)OC` [Compound 7, Tetramethyl 2,2-dimethyl 2(p-chlorophenoxy) ethane 1-hydroxy 1,1-diphosphonate]: the change in vivo at 200 mg/kg/day in experiment [1] (setting [4]) is 28%. For the same compound, the change in vivo at 200 mg/kg/day in experiment [1] (setting [5]) was determined as 26%. For the same compound, the change in vivo at 200 mg/kg/day in experiment [1] (setting [6]) was -33%. In experiment [1], the “decreases in serum triglycerides” value was “Significant decreases” and the “increase in serum phospholipid” value is on record as “found to increase”. For the same compound, in experiment [2] (setting [7]), the change in vivo at 200 mg/kg/day is -25%. Also, the change in vivo at 200 mg/kg/day in experiment [2] (setting [8]) is under 15%. The “liver total lipids and/or liver cholesterol” value in experiment [2] was “decreased significantly”. Moreover, in experiment [2] (setting [9]), the “Aorta Chol. (% control values)” value is given as -19%, the “Aorta Total Lipids (% control values)” value is -27%, the “Serum Chol. α/β (% control values)” value is “+27%” and the “Serum Free Fatty Acids (% control values)” value is given as -40%. Besides, in experiment [2] (setting [9]), the “Serum Phospholipids (% control values)” value is “NS (Except for serum calcium, values which differ from control values by less than 15% are considered as non significant (NS))” and the “Serum Triglycerides (% control values)” value is recorded as “NS (Except for serum calcium, values which differ from control values by less than 15% are considered as non significant (NS))”.

Consider `COP(=O)(OC)OC(C(C)(C)c1ccc(Cl)cc1)P(=O)(OC)OC` (stereo not shown) [Compound 21, Dimethyl 1-(dimethoxyphosphinyl) 2,2-dimethyl 2(p-chlorophenyl) ethylphosphate], for which the change in vivo at 200 mg/kg/day in experiment [1] (setting [10]) was under 15%; in experiment [1] (setting [5]) it was 16%; in experiment [1] (setting [6]), -38%; in experiment [2] (setting [7]) it was -46%; in experiment [2] (setting [8]), -36%. In addition, the “decreases in serum triglycerides” value in experiment [1] is “Significant decreases”. The “increase in serum phospholipid” value in experiment [1] is on record as “found to increase”. Also, the “liver total lipids and/or liver cholesterol” value in experiment [2] is reported as “decreased significantly”. Besides, the “Serum Chol. α/β (% control values)” value in experiment [2] (setting [9]) was -32%. The “Serum Phospholipids (% control values)” value in experiment [2] (setting [9]) is “+24%”. Also, the “Serum Triglycerides (% control values)” value in experiment [2] (setting [9]) is “+28%”.

As to `COP(=O)(OC)OC(c1ccc(C)cc1)P(=O)(OC)OC` (stereo not shown) [Compound 18], the change in vivo at 200 mg/kg/day was under 15% in experiment [1] (setting [10]), under 15% in experiment [1] (setting [5]), -33% in experiment [1] (setting [6]) and under 15% in experiment [2] (setting [8]).

`CCOP(=O)(OCC)C(Cc1ccc(Cl)cc1)P(=O)(OCC)OCC` [Compound 27]: the change in vivo at 200 mg/kg/day in experiment [1] (setting [4]) was -44%. The change in vivo at 200 mg/kg/day in experiment [1] (setting [5]) was under 15%. The change in vivo at 200 mg/kg/day in experiment [1] (setting [6]) is -16%. Further, in experiment [1], the “decreases in serum triglycerides” value is “Significant decreases”. Besides, in experiment [2] (setting [7]), the change in vivo at 200 mg/kg/day was under 15%. Moreover, the change in vivo at 200 mg/kg/day in experiment [2] (setting [8]) was under 15%. Besides, the “liver total lipids and/or liver cholesterol” value in experiment [2] is on record as “decreased significantly”. Further, in experiment [2] (setting [9]), the “Aorta Chol. (% control values)” value was “NS (Except for serum calcium, values which differ from control values by less than 15% are considered as non significant (NS))”; the “Aorta Total Lipids (% control values)” value is -60%; the “Serum Chol. α/β (% control values)” value is -35%; the “Serum Free Fatty Acids (% control values)” value is -65%. Moreover, in experiment [2] (setting [9]), the “Serum Phospholipids (% control values)” value was “NS (Except for serum calcium, values which differ from control values by less than 15% are considered as non significant (NS))” and the “Serum Triglycerides (% control values)” value is given as -24%.

Turning to `O=P(O)(O)C(O)(c1ccc(Cl)cc1)P(=O)(O)O` [Compound 10, 1-hydroxy 1 (p-chlorophenyl)methane 1,1-diphosphonic acid, monosodium salt], in experiment [1] (setting [11]), the “Serum Free Fatty Acids (% control values)” value is -27% and the “Serum Triglycerides (% control values)” value was -17%. The “Serum Calcium (% control values)” value in experiment [3] (15% NS limit does not apply, monosodium salt) is -14%. For the same compound, the “decrease of serum calcium” value in experiment [3] (about 50 mg/kg/day in drinking water, 15 days, listed as salt form of compound 4, monosodium salt) is reported as 14%.

Turning to `COP(=O)(OC)OC(c1ccccc1)P(=O)(OC)OC` (stereo not drawn) [Compound 13, dimethyl α(dimethoxyphosphinyl) benzylphosphate], in experiment [1] (setting [12]), the “Serum Free Fatty Acids (% control values)” value is listed as -21%, the “Serum Phospholipids (% control values)” value is given as “+21%” and the “Serum Triglycerides (% control values)” value is listed as “+32%”. Also, the “increase in serum phospholipid” value in experiment [1] is recorded as “found to increase”. For the same compound, in experiment [2], the “liver total lipids and/or liver cholesterol” value is on record as “decreased significantly”. For the same compound, in experiment [2] (setting [9]), the “Liver Chol. (% control values)” value was -51%, the “Liver Total Lipids (% control values)” value is on record as -18% and the “Serum Chol. α/β (% control values)” value is listed as “+25%”.

Take `COP(=O)(OC)C(O)(c1ccc(C(=O)c2ccc(Cl)cc2)cc1)P(=O)(OC)OC` [Compound 9, Tetramethyl 1[4(4'-chlorobenzoyl)-phenyl]methane 1-hydroxy 1,1-diphosphonate]: the change in vivo at 200 mg/kg/day in experiment [1] (setting [4]) is -38%. Moreover, in experiment [1] (setting [5]), the change in vivo at 200 mg/kg/day was under 15%. In experiment [1] (setting [6]), the change in vivo at 200 mg/kg/day was -16%. Moreover, in experiment [1], the “increased HDL lipids, especially HDL cholesterol” value is recorded as “observed most dramatically”; the “decreases in serum triglycerides” value is given as “Significant decreases”; the “α-cholesterol/β-cholesterol ratio / lipoprotein cholesterol” value is given as “highly significant activity”. The change in vivo at 200 mg/kg/day in experiment [2] (setting [7]) was under 15%. The change in vivo at 200 mg/kg/day in experiment [2] (setting [8]) was -25%. Moreover, the “liver total lipids and/or liver cholesterol” value in experiment [2] is reported as “decreased significantly”. Further, in experiment [2] (setting [9]), the “Aorta Chol. (% control values)” value was -39%; the “Aorta Total Lipids (% control values)” value is recorded as “NS (Except for serum calcium, values which differ from control values by less than 15% are considered as non significant (NS))”; the “Serum Chol. α/β (% control values)” value was “+51%”; the “Serum Free Fatty Acids (% control values)” value is recorded as -52%. For the same compound, in experiment [2] (setting [9]), the “Serum Phospholipids (% control values)” value is given as “+36%” and the “Serum Triglycerides (% control values)” value was -17%.

As to `COP(=O)(OC)C(O)(c1ccc(Cl)cc1)P(=O)(OC)OC` [Compound 4, Tetramethyl 1-(p-chlorophenyl)methane 1-hydroxy 1,1-diphosphonate], in experiment [1] (setting [4]), the change in vivo at 200 mg/kg/day was -48%. Further, the change in vivo at 200 mg/kg/day in experiment [1] (setting [5]) is 43%. In experiment [1] (setting [6]), the change in vivo at 200 mg/kg/day was -24%. Further, in experiment [1], the “increased HDL lipids, especially HDL cholesterol” value is on record as “observed most dramatically”; the “decreases in serum triglycerides” value was “Significant decreases”; the “increase in serum phospholipid” value is “found to increase; also recorded: at least two fold the most active”; the “α-cholesterol/β-cholesterol ratio / lipoprotein cholesterol” value is “highly significant activity”. For the same compound, the change in vivo at 200 mg/kg/day in experiment [2] (setting [7]) is -56%. Further, in experiment [2] (setting [8]), the change in vivo at 200 mg/kg/day is -31%. The “liver total lipids and/or liver cholesterol” value in experiment [2] was “decreased significantly”. For the same compound, in experiment [2] (setting [9]), the “Aorta Chol. (% control values)” value is reported as “NS (Except for serum calcium, values which differ from control values by less than 15% are considered as non significant (NS))”; the “Aorta Total Lipids (% control values)” value is reported as -47%; the “Serum Chol. α/β (% control values)” value is on record as “+220%”; the “Serum Free Fatty Acids (% control values)” value was -67%. Besides, in experiment [2] (setting [9]), the “Serum Phospholipids (% control values)” value is “+21%” and the “Serum Triglycerides (% control values)” value is -21%.
